# Activity calls are given as the source filed them.
# What was measured:
# HEK293 = assay: HEK293T cell cytotoxicity, dose response, cytotoxicity control, ATP luminescence, cherry-pick samples (AID 687005); format: functional, cell-based; conditions: Homo sapiens;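 note: cells exposed to compound for 48 hours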
# [1] = HEK293 Cytotoxicity Assay Measured in Cell-Based System Using Plate Reader - 7071-01_Inhibitor_Dose_CherryPick_Activity_Set2.; format: functional
# [2] = target: Sphingosine 1-phosphate receptor 2 (Homo sapiens, UniProt O95136); assay: Dose Response Cell Based Assay for Agonists of the S1P2 Receptor. [Related pubchem assays: 729, 736, 843 ]; format: functional
# [3] = Late-stage results from the probe development effort to identify antagonists of arginine vasopressin receptor 1a (AVPR1a): fluorescence-based cell-based dose response AVPR1a inhibition assay.; format: functional
# [4] = Late-stage results from the probe development effort to identify antagonists of arginine vasopressin receptor 1a (AVPR1a): fluorescence-based cell-based dose response OXTR inhibition counterscreen assay.; format: functional
# Vasopressin V2 receptor = Vasopressin V2 receptor (Homo sapiens, UniProt P30518); assay: Late-stage results from the probe development effort to identify antagonists of arginine vasopressin receptor 1a (AVPR1a): fluorescence-based cell-based dose response AVPR2 inhibition counterscreen assay.; format: functional
# Vasopressin V1b receptor = Vasopressin V1b receptor (Homo sapiens, UniProt P47901); assay: Late-stage results from the probe development effort to identify antagonists of arginine vasopressin receptor 1a (AVPR1a): fluorescence-based cell-based dose response AVPR1b inhibition counterscreen assay.; format: functional
# Vasopressin V1b receptor, sequence (P47901 whole entry): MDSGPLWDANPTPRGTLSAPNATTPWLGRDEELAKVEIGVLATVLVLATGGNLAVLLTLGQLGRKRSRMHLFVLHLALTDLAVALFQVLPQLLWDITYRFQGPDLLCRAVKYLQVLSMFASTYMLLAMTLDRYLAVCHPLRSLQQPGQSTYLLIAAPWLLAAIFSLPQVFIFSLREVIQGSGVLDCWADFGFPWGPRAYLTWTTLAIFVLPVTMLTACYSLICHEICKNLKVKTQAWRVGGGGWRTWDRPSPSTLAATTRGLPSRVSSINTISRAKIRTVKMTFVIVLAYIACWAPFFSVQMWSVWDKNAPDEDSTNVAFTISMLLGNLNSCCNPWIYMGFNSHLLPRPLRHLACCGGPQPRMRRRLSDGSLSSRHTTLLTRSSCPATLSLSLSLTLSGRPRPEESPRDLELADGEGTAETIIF
# Bcl-2-related protein A1 [5] = target: T1, Bcl-2-related protein A1 (Mus musculus, UniProt Q07440); assay: Bfl-1 inhibitors, primary screen, biochemical, fluorescence polarization, FITC-Bid, mouse (AID 432)
# T1 sequence (Q07440 whole entry): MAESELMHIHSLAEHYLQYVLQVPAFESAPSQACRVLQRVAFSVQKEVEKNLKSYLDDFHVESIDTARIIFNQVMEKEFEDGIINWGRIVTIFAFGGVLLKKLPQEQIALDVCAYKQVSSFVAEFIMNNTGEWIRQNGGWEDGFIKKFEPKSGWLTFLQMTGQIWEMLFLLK
# [6] = target: T2, Polyadenylate-binding protein 1 (Homo sapiens, UniProt P11940); assay: PABP1 MLLE–PAM2 binding inhibitor potency, dose response, biochemical, fluorescence polarization, FITC-PAM2 peptide (AID 602259); format: functional; conditions: read-out: IC50_Mean
# T2 sequence (P11940 whole entry): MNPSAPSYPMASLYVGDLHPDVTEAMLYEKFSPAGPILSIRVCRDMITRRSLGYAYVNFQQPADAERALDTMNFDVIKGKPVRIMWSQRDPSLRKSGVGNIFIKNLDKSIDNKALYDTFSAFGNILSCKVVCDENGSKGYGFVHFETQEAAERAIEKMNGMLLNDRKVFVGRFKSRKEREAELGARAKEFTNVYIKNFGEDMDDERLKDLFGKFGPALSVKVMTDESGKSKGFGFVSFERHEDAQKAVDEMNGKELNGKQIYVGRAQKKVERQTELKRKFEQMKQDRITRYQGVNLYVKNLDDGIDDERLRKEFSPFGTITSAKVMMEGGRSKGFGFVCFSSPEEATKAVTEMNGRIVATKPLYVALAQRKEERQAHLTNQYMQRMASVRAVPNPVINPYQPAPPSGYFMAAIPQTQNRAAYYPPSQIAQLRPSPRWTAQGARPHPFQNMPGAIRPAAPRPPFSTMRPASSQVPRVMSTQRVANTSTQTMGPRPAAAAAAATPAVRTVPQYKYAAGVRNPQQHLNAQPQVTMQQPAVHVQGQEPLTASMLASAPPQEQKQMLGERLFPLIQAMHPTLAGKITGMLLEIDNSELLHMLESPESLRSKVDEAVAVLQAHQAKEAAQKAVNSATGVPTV
# [7] = target: T2, Polyadenylate-binding protein 1; assay: PABP1 MLLE–PAM2 interaction inhibitors, dose response, miRNA deadenylation inhibitor project, biochemical, fluorescence polarization, Cy5-PAM2 peptide, secondary (AID 602260); format: functional; conditions: read-out: IC50_Mean
# Bcl-2-related protein A1 [8] = target: T1, Bcl-2-related protein A1; assay: Bfl-1 inhibitors blocking BH3 peptide binding, confirmation, biochemical, TR-FRET, mouse Bfl-1 (AID 621);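 note: TR-FRET binding of GST-Bfl-1 to FITC-labelled Bid peptide via terbium antibody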
# [9] = target: Metabotropic glutamate receptor 5 (Rattus norvegicus, UniProt P31424); assay: Identification of a glycine sulfonamide based non-MPEP site positive allosteric potentiator (PAM) of mGlu5 (calcium_assay).; format: functional
# Metabotropic glutamate receptor 5, sequence (P31424 whole entry): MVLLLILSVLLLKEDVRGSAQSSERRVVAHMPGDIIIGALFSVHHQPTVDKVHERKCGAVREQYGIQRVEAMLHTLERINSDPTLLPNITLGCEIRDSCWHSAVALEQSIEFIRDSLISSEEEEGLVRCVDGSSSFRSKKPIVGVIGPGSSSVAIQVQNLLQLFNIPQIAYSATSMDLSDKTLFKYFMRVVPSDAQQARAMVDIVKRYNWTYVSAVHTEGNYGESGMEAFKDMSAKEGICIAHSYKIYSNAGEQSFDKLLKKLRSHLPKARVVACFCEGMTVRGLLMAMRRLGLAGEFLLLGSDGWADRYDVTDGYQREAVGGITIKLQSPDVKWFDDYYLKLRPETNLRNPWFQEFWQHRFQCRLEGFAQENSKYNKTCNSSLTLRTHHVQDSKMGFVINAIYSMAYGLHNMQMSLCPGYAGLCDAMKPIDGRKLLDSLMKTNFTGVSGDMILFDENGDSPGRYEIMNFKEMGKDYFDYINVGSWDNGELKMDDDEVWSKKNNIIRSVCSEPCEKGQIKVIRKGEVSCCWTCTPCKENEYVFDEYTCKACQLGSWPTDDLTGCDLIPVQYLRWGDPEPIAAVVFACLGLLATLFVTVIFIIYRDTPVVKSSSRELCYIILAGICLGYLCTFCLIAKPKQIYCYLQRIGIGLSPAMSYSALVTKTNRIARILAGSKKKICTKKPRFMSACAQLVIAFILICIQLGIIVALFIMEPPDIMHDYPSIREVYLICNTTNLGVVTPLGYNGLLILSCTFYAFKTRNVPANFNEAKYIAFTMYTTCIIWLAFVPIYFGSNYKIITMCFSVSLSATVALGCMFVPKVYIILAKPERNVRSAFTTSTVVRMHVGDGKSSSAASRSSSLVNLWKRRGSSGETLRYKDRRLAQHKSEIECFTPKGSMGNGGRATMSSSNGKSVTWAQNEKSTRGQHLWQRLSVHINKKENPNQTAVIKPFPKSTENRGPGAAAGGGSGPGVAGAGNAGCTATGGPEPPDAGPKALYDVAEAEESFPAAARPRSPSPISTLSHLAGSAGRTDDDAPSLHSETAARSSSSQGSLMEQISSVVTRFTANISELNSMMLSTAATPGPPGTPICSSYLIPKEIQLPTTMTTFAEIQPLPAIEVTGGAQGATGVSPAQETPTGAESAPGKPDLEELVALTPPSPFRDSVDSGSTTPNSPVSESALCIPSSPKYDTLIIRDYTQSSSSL
# [10] = target: Ubiquitin carboxyl-terminal hydrolase BAP1 (Homo sapiens, UniProt Q92560); assay: BAP1 deubiquitinase inhibitors, dose response, biochemical (AID 714); format: functional
# Ubiquitin carboxyl-terminal hydrolase BAP1, sequence (Q92560 whole entry): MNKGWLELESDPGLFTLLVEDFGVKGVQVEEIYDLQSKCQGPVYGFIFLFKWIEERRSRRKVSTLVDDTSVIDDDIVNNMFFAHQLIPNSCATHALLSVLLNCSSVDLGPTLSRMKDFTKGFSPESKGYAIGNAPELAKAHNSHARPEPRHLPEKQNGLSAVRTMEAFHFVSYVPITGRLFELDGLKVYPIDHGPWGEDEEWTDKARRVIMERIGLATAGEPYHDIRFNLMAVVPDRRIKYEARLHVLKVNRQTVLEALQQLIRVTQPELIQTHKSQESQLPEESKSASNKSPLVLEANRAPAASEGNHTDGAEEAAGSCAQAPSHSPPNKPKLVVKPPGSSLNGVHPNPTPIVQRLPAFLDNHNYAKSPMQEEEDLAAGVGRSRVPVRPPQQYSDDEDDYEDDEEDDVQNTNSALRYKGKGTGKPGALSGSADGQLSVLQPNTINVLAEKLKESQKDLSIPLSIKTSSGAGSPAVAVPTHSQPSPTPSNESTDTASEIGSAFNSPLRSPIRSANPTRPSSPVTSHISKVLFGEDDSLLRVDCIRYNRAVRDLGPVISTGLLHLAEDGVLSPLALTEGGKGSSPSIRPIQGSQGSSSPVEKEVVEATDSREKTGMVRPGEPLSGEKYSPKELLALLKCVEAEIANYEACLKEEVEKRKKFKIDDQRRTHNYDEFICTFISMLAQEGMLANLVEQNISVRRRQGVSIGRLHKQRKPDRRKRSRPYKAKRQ
# [11] = target: T3, Heat shock factor protein 1 (Mus musculus, UniProt P38532); assay: HSF1 potentiators in luciferase reporter cells, confirmation, cell-based, NIH3T3, luminescence, dose retest (AID 435004); format: functional;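 note: stress induced by proteasome inhibitor MG132 added 30 min after compound; luciferase reporter driven by HSF1 response element in NIH3T3 cells; actives raise luminescence as potentiators of the MG132 stress response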
# T3 sequence (P38532 whole entry): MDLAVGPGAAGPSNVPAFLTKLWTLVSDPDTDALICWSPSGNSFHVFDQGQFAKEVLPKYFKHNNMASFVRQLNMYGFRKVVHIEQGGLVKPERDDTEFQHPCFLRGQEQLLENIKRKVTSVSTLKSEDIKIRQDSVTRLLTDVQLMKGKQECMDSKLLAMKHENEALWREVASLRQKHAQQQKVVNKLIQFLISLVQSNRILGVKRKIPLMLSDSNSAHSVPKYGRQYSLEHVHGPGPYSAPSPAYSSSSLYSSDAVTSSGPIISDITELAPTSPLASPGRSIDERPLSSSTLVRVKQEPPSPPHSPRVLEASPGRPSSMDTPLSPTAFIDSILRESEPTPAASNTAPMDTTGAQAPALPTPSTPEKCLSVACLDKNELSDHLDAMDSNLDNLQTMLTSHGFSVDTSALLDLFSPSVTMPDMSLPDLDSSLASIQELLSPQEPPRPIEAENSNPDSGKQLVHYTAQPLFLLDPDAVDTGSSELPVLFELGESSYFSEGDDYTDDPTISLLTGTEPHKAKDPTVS
# [12] = NIH:OVCAR-3 ovarian cancer cell cytotoxicity, dose response, PAX8 inhibitor project, plate reader, dry powder samples (AID 743044); format: functional, cell-based
# [13] = IOSE-T80 ovarian epithelial cell cytotoxicity, dose response, cytotoxicity control for PAX8 inhibitor project, plate reader, dry powder samples (AID 743045); format: functional, cell-based
# Paired box protein Pax-8 = Paired box protein Pax-8 (Homo sapiens, UniProt Q06710); assay: inhibitors of PAX8-driven TPO luciferase reporter, dose response, RMG-I cells, cherry-pick (AID 687027); format: functional, cell-based;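 note: luciferase reporter driven by Pax8 target thyroperoxidase promoter measured by SteadyGlo luminescence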
# Paired box protein Pax-8, sequence (Q06710 whole entry): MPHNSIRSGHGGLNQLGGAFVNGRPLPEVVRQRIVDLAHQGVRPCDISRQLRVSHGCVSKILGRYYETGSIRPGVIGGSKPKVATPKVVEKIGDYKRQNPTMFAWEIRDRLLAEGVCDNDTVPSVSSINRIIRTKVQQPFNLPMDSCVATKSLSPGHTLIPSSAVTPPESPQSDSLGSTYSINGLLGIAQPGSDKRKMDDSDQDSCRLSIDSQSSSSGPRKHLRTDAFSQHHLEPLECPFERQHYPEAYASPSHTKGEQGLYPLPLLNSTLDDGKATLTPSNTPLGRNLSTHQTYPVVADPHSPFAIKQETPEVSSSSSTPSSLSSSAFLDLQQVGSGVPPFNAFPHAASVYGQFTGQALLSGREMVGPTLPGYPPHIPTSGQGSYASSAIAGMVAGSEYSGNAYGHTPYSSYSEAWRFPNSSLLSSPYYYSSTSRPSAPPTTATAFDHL
# [14] = A2780 ovarian cancer cell cytotoxicity, dose response, cytotoxicity control, plate reader, dry powder samples (AID 743046); format: functional, cell-based
# [15] = IGROV1 ovarian cancer cell cytotoxicity, dose response, PAX8 inhibitor project, plate reader, dry powder samples (AID 743043); format: functional, cell-based; conditions: IGROV-1
# Beta-galactosidase = Beta-galactosidase (Escherichia coli, UniProt Q8VNN2); assay: Dose response counterscreen for EBI2 assay utilizing the enzyme, b-galactosidase.; format: functional
# Beta-galactosidase, sequence (Q8VNN2 whole entry): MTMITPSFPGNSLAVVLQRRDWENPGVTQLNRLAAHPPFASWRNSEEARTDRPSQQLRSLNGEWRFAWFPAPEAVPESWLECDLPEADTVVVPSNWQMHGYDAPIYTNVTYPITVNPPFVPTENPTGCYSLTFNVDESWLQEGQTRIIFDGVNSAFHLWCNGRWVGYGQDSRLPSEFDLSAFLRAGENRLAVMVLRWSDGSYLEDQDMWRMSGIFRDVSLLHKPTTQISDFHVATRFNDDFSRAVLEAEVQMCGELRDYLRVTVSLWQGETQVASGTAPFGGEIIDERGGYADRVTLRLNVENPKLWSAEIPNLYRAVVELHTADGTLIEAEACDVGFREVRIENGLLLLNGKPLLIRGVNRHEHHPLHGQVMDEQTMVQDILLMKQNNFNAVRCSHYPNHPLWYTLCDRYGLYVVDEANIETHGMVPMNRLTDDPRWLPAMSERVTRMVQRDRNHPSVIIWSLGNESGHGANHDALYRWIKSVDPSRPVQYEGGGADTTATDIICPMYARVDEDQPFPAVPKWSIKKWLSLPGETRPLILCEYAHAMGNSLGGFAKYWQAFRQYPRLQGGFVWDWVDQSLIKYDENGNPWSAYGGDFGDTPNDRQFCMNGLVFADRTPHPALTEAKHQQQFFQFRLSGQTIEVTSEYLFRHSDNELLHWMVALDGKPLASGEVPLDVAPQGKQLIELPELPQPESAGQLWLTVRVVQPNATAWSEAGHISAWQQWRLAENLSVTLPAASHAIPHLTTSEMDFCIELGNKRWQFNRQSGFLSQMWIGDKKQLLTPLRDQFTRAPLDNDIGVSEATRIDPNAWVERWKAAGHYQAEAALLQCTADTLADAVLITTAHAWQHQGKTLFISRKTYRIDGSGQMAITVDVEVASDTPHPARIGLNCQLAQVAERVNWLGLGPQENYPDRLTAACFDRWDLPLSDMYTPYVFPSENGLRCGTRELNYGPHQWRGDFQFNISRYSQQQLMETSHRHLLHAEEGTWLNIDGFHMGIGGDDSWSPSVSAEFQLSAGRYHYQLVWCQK
# [16] = target: G-protein coupled receptor 183 (Homo sapiens, UniProt P32249); assay: SAR confirmation of small molecule antagonists of the EBI2 receptor via a luminescent beta-arrestin assa.; format: functional
# G-protein coupled receptor 183, sequence (P32249 whole entry): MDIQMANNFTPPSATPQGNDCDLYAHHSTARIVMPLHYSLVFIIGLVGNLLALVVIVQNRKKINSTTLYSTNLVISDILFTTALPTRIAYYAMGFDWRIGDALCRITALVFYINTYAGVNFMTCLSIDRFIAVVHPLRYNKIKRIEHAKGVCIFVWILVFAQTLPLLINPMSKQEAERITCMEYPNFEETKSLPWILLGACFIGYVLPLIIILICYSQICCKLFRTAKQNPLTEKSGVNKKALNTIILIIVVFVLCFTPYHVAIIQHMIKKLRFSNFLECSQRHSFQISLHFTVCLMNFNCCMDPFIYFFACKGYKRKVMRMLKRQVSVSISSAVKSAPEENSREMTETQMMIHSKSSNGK
compound,measurement,setting,value
COc1ccc(-n2cc(CNCCc3nc(C)cc(C)n3)c(-c3ccccc3Cl)n2)cc1,AC50,HEK293,11.4 µM (active)
same,AC50,[1],11.4 µM (active)
COc1cc2c(cc1OC)C1=C(C#N)CCC(=O)N1CC2,EC50,[2],1.33 µM (active)
COc1cccc(N(CC2CC2)C(=O)N2CCN(c3ccccc3C)CC2)c1,IC50,[3],57 nM (active)
same,IC50,[4],20.6 µM (inactive)
same,IC50,Vasopressin V2 receptor,20.6 µM (inactive)
same,IC50,Vasopressin V1b receptor,12.4 µM (inactive)
NC(=O)N1c2ccccc2CC(=O)c2ccccc21 [OXCARBAZEPINE],IC50,Bcl-2-related protein A1 [5],> 100 µM (not active)
same,IC50,[6],28.1 µM (inactive)
same,IC50,[7],> 66 µM (inactive)
same,IC50,Bcl-2-related protein A1 [8],> 100 µM (not active)
CC(C)(C)NC(=O)CN(c1ccccc1Cl)S(C)(=O)=O,EC50,[9],> 30 µM (inactive)
O=C1CC(c2ccoc2)CC(Nc2ccccc2)=C1C(=O)Nc1ccccc1 (stereo unspecified),IC50,[10],> 50 µM (not active)
same,EC50,[11],> 260 µM (inactive)
C[C@H](CO)N1C[C@H](C)[C@H](CN(C)Cc2ccccc2)OCCCC[C@H](C)Oc2ccc(NC(=O)Nc3ccc(C(F)(F)F)cc3)cc2C1=O,AC50,[12],17.6 µM (active)
same,AC50,[13],50 µM (active)
same,AC50,Paired box protein Pax-8,4.95 µM (active)
same,AC50,[14],41.4 µM (active)
same,AC50,[15],26.9 µM (active)
O=C(/C=C/c1ccc(Br)cc1)N1CCN(Cc2ccccc2)CC1,IC50,Beta-galactosidase,> 80 µM (inactive)
same,IC50,[16],2.8 nM (active)
